According to US4027039A (priority 1975, dated 1977):
Several values for one entry are separate records, joined by “and”; a condition that tells them apart may be missing. Equal values may be shown once. Entries after “also recorded” stand apart in the source; their conditions may differ. Where a name gives a salt, the structure may show the parent alone. Read-outs that look alike come from different tables or passages of the source.

Columns and labels:
[1] = tested on: Influenza, Ann Arbor virus; experiment: Influenza Ann Arbor in mice, oral; schedule by table; late read day 5 (Tables 15, 25, 29, 30), 6 (18, 20, 22, 23, 26, 27, 28, 54), 7 (14, 19, 21, 24, 53, 56), 8 (16, 17, 51), 9 (11, 55); type: in vivo, mouse
viral infections = experiment: Antiviral screening in animals, general statements; details: mouse, in vivo
[2] = tested on: Influenza B Maryland virus; experiment: Influenza B Maryland in mice, oral; type: in vivo, mouse
Columbia SK Polio virus = type: in vivo, mouse; details: mouse, in vivo
Vaccinia virus = type: in vivo, rabbit; details: rabbit, in vivo
Influenza PR 8 virus = experiment: Influenza PR 8 in mice, oral; schedule by table; late read day 6 (Table 37), 7 (33, 36), 8 (32, 35, 47), 10 (38); control fraction 18/20 (Table 32), 19/20 (Table 35), else 100%; type: in vivo, mouse
[3] = tested on: Influenza, Ann Arbor virus; experiment: Influenza Ann Arbor in mice, subcutaneous; late read day 9 (Table 11), 7 (Tables 12, 14), 5 (Table 13); type: in vivo, mouse
Vaccinia IHD virus = type: in vivo, mouse
Neurovaccinia virus = experiment: Neurovaccinia in mice; details: intraperitoneal

CN1C(=O)/C(=N\NC(N)=S)c2ccccc21 [Methisazone, 1-methylindole-2,3-dione, 3-thiosemicarbazone, reference compound]
No. animals surviving after 6-9 days (Herpes virus; total dose .0000005 μg): 4 and 3 | No. animals surviving after 6-9 days (Herpes virus; total dose .05 μg): 1 | No. animals surviving when 100% (or given fraction) of controls are dead (Herpes virus; total dose .05 μg): 0 | Survivors (Herpes virus; total dose .05 μg): 0 | No. animals surviving after 5-9 days ([1]; total dose 5 μg): 4 | Survivors ([1]; total dose 5 μg): 0 | No. animals surviving after 5-9 days ([1]; total dose 50 μg): 3 | Survivors ([1]; total dose 50 μg): 0 | No. animals surviving after 5-9 days ([1]; total dose .00005 μg): 6 | Survivors ([1]; total dose .00005 μg): 0 | No. animals surviving after 5-9 days ([1]; total dose .0005 μg): 5 | Survivors ([1]; total dose .0005 μg): 0 | No. animals surviving after 5-9 days ([1]; total dose .005 μg): 5 | Survivors ([1]; total dose .005 μg): 0 | No. animals surviving after 5-9 days ([1]; total dose .05 μg): 4 | Survivors ([1]; total dose .05 μg): 0 | No. animals surviving after 5-9 days ([1]; total dose .5 μg): 6 | Survivors ([1]; total dose .5 μg): 0 | activity in words (viral infections): active against pox virus infections of mice; also recorded: activity | activity in words ([2]; mouse, in vivo): active | No. animals surviving when 18/20 of controls are dead ([2]; total dose 6 ng): 4 | Survivors ([2]; total dose 6 ng): 2 | No. animals surviving when 18/20 of controls are dead ([2]; total dose 60 ng): 4 | Survivors ([2]; total dose 60 ng): 2 | No. animals surviving when 18/20 of controls are dead ([2]; total dose 600 ng): 2 | Survivors ([2]; total dose 600 ng): 2 | No. animals surviving when 18/20 of controls are dead ([2]; total dose 6 μg): 4 | Survivors ([2]; total dose 6 μg): 1

CCC(C)=NNC(N)=S [thiosemicarbazone]
instances of statistically significant geometric mean survival time (Columbia SK Polio virus): two | effect on pox formation (Vaccinia virus): very striking effects of the drug on the pox formation; also recorded: highly significant diminution of pox formation

NN [hydrazine, hydrate]
No. animals surviving after 6-10 days (Influenza PR 8 virus; total dose 5 μg): 1 | No. animals surviving when 100% (or given fraction) of controls are dead (Influenza PR 8 virus; total dose 5 μg): 0 | Survivors (Influenza PR 8 virus; total dose 5 μg): 0 | No. animals surviving after 6-10 days (Influenza PR 8 virus; total dose 50 μg): 1 | No. animals surviving when 100% (or given fraction) of controls are dead (Influenza PR 8 virus; total dose 50 μg): 0 | Survivors (Influenza PR 8 virus; total dose 50 μg): 0 | No. animals surviving after 6-10 days (Influenza PR 8 virus; total dose .000005 μg): 4 | No. animals surviving when 100% (or given fraction) of controls are dead (Influenza PR 8 virus; total dose .000005 μg, hydrate): 4 | Survivors (Influenza PR 8 virus; total dose .0005 μg, hydrate): 1 | No. animals surviving when 100% (or given fraction) of controls are dead (Influenza PR 8 virus; total dose .5 μg): 1 | Survivors (Influenza PR 8 virus; total dose .5 μg): 1 | No. animals surviving after 6-10 days (Influenza PR 8 virus; total dose .5 μg, hydrate): 1 | No. animals surviving after 5-9 days ([1]; total dose 5 μg): 4 | Survivors ([1]; total dose 5 μg): 0 | No. animals surviving after 5-9 days ([1]; total dose 50 μg): 4 | Survivors ([1]; total dose 50 μg): 0 | No. animals surviving after 5-9 days ([1]; total dose 500 μg): 5 | Survivors ([1]; total dose 500 μg): 0 | No. animals surviving after 5-9 days ([1]; total dose .00005 μg): 6 | Survivors ([1]; total dose .00005 μg): 0 | No. animals surviving after 5-9 days ([1]; total dose .0005 μg): 6 | Survivors ([1]; total dose .0005 μg): 0 | No. animals surviving after 5-9 days ([1]; total dose .005 μg): 3 | Survivors ([1]; total dose .005 μg): 0 | No. animals surviving after 5-9 days ([1]; total dose .05 μg): 3 | Survivors ([1]; total dose .05 μg): 1 | No. animals surviving after 5-9 days ([1]; total dose .5 μg): 6 | Survivors ([1]; total dose .5 μg): 0 | activity in words (viral infections): active | No. animals surviving after 5-9 days ([3]; total dose 5 μg): 6 | Survivors ([3]; total dose 5 μg, hydrate): 3 | No. animals surviving after 5-9 days ([3]; total dose 50 μg, hydrate): 7 and 4 | Survivors ([3]; total dose 500 μg): 0 | No. animals surviving after 5-9 days ([3]; total dose 500 μg, hydrate): 6 and 3 | No. animals surviving after 5-9 days ([3]; total dose .00005 μg): 1 | Survivors ([3]; total dose .00005 μg): 0 | No. animals surviving after 5-9 days ([3]; total dose .0005 μg, hydrate): 5 and 7 | No. animals surviving after 5-9 days ([3]; total dose .005 μg, hydrate): 3 and 4 | No. animals surviving after 5-9 days ([3]; total dose .05 μg, hydrate): 4 and 6 | No. animals surviving after 5-9 days ([3]; total dose .5 μg, hydrate): 7 and 5

NNC(N)=O [semicarbazide, hydrochloride]
No. animals surviving after 6-9 days (Herpes virus; total dose 5 μg, hydrochloride): 5 | Statistical Significance of Tail Lesions (Vaccinia IHD virus; 10 ng, day 6): < .01 | Statistical Significance of Tail Lesions (Vaccinia IHD virus; 10 ng, day 11): < .05 | Statistical Significance of Tail Lesions (Vaccinia IHD virus; 10 ng, day 12): < .05 | Statistical Significance of Tail Lesions (Vaccinia IHD virus; 10 ng, day 17): < .05 | Statistical Significance of Tail Lesions (Vaccinia IHD virus; 1 μg, day 6): < .01 | Statistical Significance of Tail Lesions (Vaccinia IHD virus; 1 μg, day 8): < .01 | Statistical Significance of Tail Lesions (Vaccinia IHD virus; 1 μg, day 10): < .01 | Statistical Significance of Tail Lesions (Vaccinia IHD virus; 1 μg, day 11): < .01 | Statistical Significance of Tail Lesions (Vaccinia IHD virus; 1 μg, day 12): < .01 | Statistical Significance of Tail Lesions (Vaccinia IHD virus; 1 μg, day 14): < .01 | Statistical Significance of Tail Lesions (Vaccinia IHD virus; 1 μg, day 17): < .01 | Statistical Significance of Tail Lesions (Vaccinia IHD virus; 1 μg, day 21): < .05 | Statistical Significance of Tail Lesions (Vaccinia IHD virus; 10 [μg], day 7): < .01 | Statistical Significance of Tail Lesions (Vaccinia IHD virus; 10 [μg], day 10): < .05 | Statistical Significance of Tail Lesions (Vaccinia IHD virus; 10 [μg], day 11): < .01 | Statistical Significance of Tail Lesions (Vaccinia IHD virus; 10 [μg], day 12): < .01 | Statistical Significance of Tail Lesions (Vaccinia IHD virus; 10 [μg], day 14): < .01 | Statistical Significance of Tail Lesions (Vaccinia IHD virus; 10 [μg], day 17): < .01 | Statistical Significance of Tail Lesions (Vaccinia IHD virus; 10 [μg], day 21): < .05 | Statistical Significance of Tail Lesions (Vaccinia IHD virus; 100 [ng], day 7): < .05 | Statistical Significance of Tail Lesions (Vaccinia IHD virus; 100 [ng], day 11): < .05 | Statistical Significance of Tail Lesions (Vaccinia IHD virus; 100 [ng], day 12): < .05 | Statistical Significance of Tail Lesions (Vaccinia IHD virus; 100 [ng], day 14): < .05 | Statistical Significance of Tail Lesions (Vaccinia IHD virus; 100 [ng], day 17): < .01 | Statistical Significance of Tail Lesions (Vaccinia IHD virus; 100 [ng], day 21): < .01 | activity in words (viral infections): effective | No. animals surviving after 6 days (Neurovaccinia virus; total dose .0075 μg): 1/2 | Survivors (Neurovaccinia virus; total dose .75 μg): 0
